Data: PMC9172550, “Novel derivatives of eugenol as potent anti-inflammatory agents via PPARγ agonism: rational design, synthesis, analysis, PPARγ protein binding assay and computational studies” (RSC Advances, 2022)

How the values were obtained:
egg albumin = egg albumin (Gallus gallus, UniProt P01012); test: Albumin denaturation assay (in vitro anti-inflammatory activity); set-up: species or system hen; details: means ± SD, n = 3, read-out: percentage inhibition of albumin denaturation
Experimental: In this assay egg albumin is used as protein. Protein denaturation is achieved by keeping the reaction mixture at 70 °C in a water bath for 10 minutes.
The reaction mixture containing 0.2 ml of egg albumin (from fresh hen's eggs), 2.8 ml of phosphate-buffered saline (pH 6.4), and were mixed with 2 ml of the synthesized compounds in varying concentrations. Then the samples were incubated at 37 °C for 20 min and then heated to 70 °C for 20 min. After cooling the samples, the turbidity was measured spectrophotometrically at 660 nm. […] The following formula was used to calculate the percentage inhibition of protein denaturation. [drawing 5]

PPARγ LBD protein = target: T1, PPARγ LBD protein (Homo sapiens, UniProt P37231); test: LanthaScreen TR-FRET competitive ligand displacement (PPARγ protein binding) assay; details: for IC50: TR-FRET PPARγ binding, tracer displacement
T1 construct: 1 nM 6xHis-PPAR LBD protein
T1 sequence (P37231 238-503 limits assumed): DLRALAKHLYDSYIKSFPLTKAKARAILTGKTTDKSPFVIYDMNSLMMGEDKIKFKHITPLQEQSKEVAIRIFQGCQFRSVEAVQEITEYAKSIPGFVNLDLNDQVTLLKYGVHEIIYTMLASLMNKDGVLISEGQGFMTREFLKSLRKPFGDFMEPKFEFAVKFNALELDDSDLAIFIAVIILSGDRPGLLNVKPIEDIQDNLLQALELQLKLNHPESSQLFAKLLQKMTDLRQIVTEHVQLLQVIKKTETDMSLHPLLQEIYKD
Experimental: Based on time-resolved fluorescence resonance energy transfer (TR-FRET), the nuclear receptor competitive binding assay was utilized to identify PPARγ ligands. […] The tracer is displaced from PPARγ-LBD by a chemical under test, resulting in a decrease in the FRET signal and a low TR-FRET ratio (Fig. 8).
We performed a time-resolved fluorescence resonance energy transfer (TR-FRET) assay using a black flat bottom 384-well plate and a buffer containing 20 mM potassium phosphate (pH 7.4), 0.5 mM EDTA, 50 mM KCl, and 0.01% Tween-20, 5 mM TCEP. For the TR-FRET coregulator interaction assay, each well contained 400 nM FITC-labeled TRAP220 or NCoR1 peptides, 1 nM LanthaScreen Elite Tb-anti-His Antibody, 4 nM 6xHis-PPARγ LBD protein and 400 nM peptide in TR-FRET buffer in 22.5 μL total volume per well. Each well ([…] per well) included 1 nM 6xHis-PPAR LBD protein, 1 nM LanthaScreen Elite Tb-anti-His Antibody, and 5 nM Fluormone Pan-PPAR Green tracer ligand in TR-FRET buffer for the ligand displacement experiment. Ligand stocks were made by serial dilution in DMSO, then added to wells in triplicate to a final DMSO concentration of 1%, then incubated at room temperature for 1 hour, and read using a BioTek Synergy Neo multimode plate reader. The Tb donor was stimulated at 340 nm, its fluorescence emission was measured at 490 nm, and the FITC emission of the acceptor was detected at 520 nm. The signal at 520 nm/490 nm was used to compute the TR-FRET ratio.[37,38]

Sequence of egg albumin (P01012 2-386): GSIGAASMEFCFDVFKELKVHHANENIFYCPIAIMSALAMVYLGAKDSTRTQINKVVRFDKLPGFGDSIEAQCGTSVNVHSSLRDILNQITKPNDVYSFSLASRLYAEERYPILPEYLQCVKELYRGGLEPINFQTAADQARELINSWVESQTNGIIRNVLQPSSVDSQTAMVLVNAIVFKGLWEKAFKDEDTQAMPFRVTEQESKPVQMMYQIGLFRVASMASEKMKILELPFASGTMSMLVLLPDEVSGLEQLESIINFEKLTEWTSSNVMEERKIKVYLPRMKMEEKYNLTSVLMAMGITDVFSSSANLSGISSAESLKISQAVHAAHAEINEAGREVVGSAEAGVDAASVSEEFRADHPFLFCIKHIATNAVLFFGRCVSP

Structure (SMILES)	inhibition at 6.25 µM (egg albumin) [%]	inhibition at 12.5 µM (egg albumin) [%]	inhibition at 25 µM (egg albumin) [%]	inhibition at 50 µM (egg albumin) [%]	inhibition at 150 µM (egg albumin) [%]	inhibition at 200 µM (egg albumin) [%]	inhibition at 400 µM (egg albumin) [%]	IC50 (PPARγ LBD protein) [µM]	Raw Data (RLU) (PPARγ LBD protein; TR-FRET signal at 0.0000512 µM)	Raw Data - Background (RLU) (PPARγ LBD protein; TR-FRET signal at 0.0000512 µM)	Raw Data (RLU) (PPARγ LBD protein; TR-FRET signal at 0.000256 µM)	Raw Data - Background (RLU) (PPARγ LBD protein; TR-FRET signal at 0.000256 µM)	Raw Data (RLU) (PPARγ LBD protein; TR-FRET signal at 0.00128 µM)	Raw Data - Background (RLU) (PPARγ LBD protein; TR-FRET signal at 0.00128 µM)	Raw Data (RLU) (PPARγ LBD protein; TR-FRET signal at 0.0064 µM)	Raw Data - Background (RLU) (PPARγ LBD protein; TR-FRET signal at 0.0064 µM)	Raw Data (RLU) (PPARγ LBD protein; TR-FRET signal at 0.032 µM)	Raw Data - Background (RLU) (PPARγ LBD protein; TR-FRET signal at 0.032 µM)	Raw Data (RLU) (PPARγ LBD protein; TR-FRET signal at 0.16 µM)	Raw Data - Background (RLU) (PPARγ LBD protein; TR-FRET signal at 0.16 µM)	further results
O=C(O)Cc1ccccc1Nc1c(Cl)cccc1Cl [Standard diclofenac, Diclofenac sodium, reference compound]	10 ± 0.463	15.7 ± 0.429	27 ± 0.336	38.5 ± 0.468	48.3 ± 3.14	60.9 ± 0.223	66.29 ± 0.375	–	–	–	–	–	–	–	–	–	–	–	–	–	–
C=CCc1ccc(OCC(=O)Nc2ccc(OC)cc2)c(OC)c1 [Compound 1B, 2-(4-Allyl-2-methoxyphenoxy)-N-(4-methoxyphenyl) acetamide]	1.71 ± 0.344	4.57 ± 0.54	6.82 ± 1.37	8.59 ± 0.205	9.45 ± 0.681	16.4 ± 5.09	30.7 ± 4.44	41.5	2.024	1.789	1.990	1.755	1.965	1.73	1.913	1.678	1.913	1.678	1.960	1.724	Raw Data (RLU) (PPARγ LBD protein; TR-FRET signal at 0.8 µM): 2.002 RLU; Raw Data - Background (RLU) (PPARγ LBD protein; TR-FRET signal at 0.8 µM): 1.767 RLU; Raw Data (RLU) (PPARγ LBD protein; TR-FRET signal at 4 µM): 1.855 RLU; Raw Data - Background (RLU) (PPARγ LBD protein; TR-FRET signal at 4 µM): 1.619 RLU; Raw Data (RLU) (PPARγ LBD protein; TR-FRET signal at 20 µM): 1.280 RLU; Raw Data - Background (RLU) (PPARγ LBD protein; TR-FRET signal at 20 µM): 1.045 RLU; Raw Data (RLU) (PPARγ LBD protein; TR-FRET signal at 100 µM): 0.534 RLU; Raw Data - Background (RLU) (PPARγ LBD protein; TR-FRET signal at 100 µM): 0.2989 RLU
C=CCc1ccc(OCC(=O)Nc2ccc(Cl)cc2)c(OC)c1 [Compound 1C, 2-(4-Allyl-2-methoxyphenoxy)-N-(4-chlorophenyl) acetamide]	5.23 ± 4.12	9.14 ± 0.615	15.7 ± 1.59	22.6 ± 1.98	38.5 ± 1.1	48.1 ± 1.14	56.9 ± 1.8	10.7	2.069	1.834	1.896	1.660	1.907	1.672	1.934	1.699	1.989	1.754	1.921	1.686	Raw Data (RLU) (PPARγ LBD protein; TR-FRET signal at 0.8 µM): 1.922 RLU; Raw Data - Background (RLU) (PPARγ LBD protein; TR-FRET signal at 0.8 µM): 1.687 RLU; Raw Data (RLU) (PPARγ LBD protein; TR-FRET signal at 4 µM): 1.761 RLU; Raw Data - Background (RLU) (PPARγ LBD protein; TR-FRET signal at 4 µM): 1.526 RLU; Raw Data (RLU) (PPARγ LBD protein; TR-FRET signal at 20 µM): 1.058 RLU; Raw Data - Background (RLU) (PPARγ LBD protein; TR-FRET signal at 20 µM): 0.823 RLU; Raw Data (RLU) (PPARγ LBD protein; TR-FRET signal at 100 µM): 0.951 RLU; Raw Data - Background (RLU) (PPARγ LBD protein; TR-FRET signal at 100 µM): 0.716 RLU
C=CCc1ccc(OCC(=O)Nc2ccc(C)cc2)c(OC)c1 [Compound 1A, 2-(4-Allyl-2-methoxyphenoxy)-N-p-tolylacetamide]	2.42 ± 0.165	5.7 ± 3.19	8.72 ± 3.93	13.3 ± 7.51	17.2 ± 8.71	25.4 ± 2.87	32 ± 2.95	13.5	2.07	1.84	2.10	1.862	2.02	1.787	1.92	1.688	2.00	1.76	1.95	1.716	Raw Data (RLU) (PPARγ LBD protein; TR-FRET signal at 0.8 µM): 1.99 RLU; Raw Data - Background (RLU) (PPARγ LBD protein; TR-FRET signal at 0.8 µM): 1.754 RLU; Raw Data (RLU) (PPARγ LBD protein; TR-FRET signal at 4 µM): 1.57 RLU; Raw Data - Background (RLU) (PPARγ LBD protein; TR-FRET signal at 4 µM): 1.332 RLU; Raw Data (RLU) (PPARγ LBD protein; TR-FRET signal at 20 µM): 1.07 RLU; Raw Data - Background (RLU) (PPARγ LBD protein; TR-FRET signal at 20 µM): 0.8399 RLU; Raw Data (RLU) (PPARγ LBD protein; TR-FRET signal at 100 µM): 0.54 RLU; Raw Data - Background (RLU) (PPARγ LBD protein; TR-FRET signal at 100 µM): 0.3006 RLU
C=CCc1ccc(OCC(=O)Nc2cccc(C)c2)c(OC)c1 [Compound 1D, 2-(4-Allyl-2-methoxyphenoxy)-N-m-tolylacetamide]	2.66 ± 1.12	7.88 ± 3.8	11.1 ± 3.65	15.9 ± 7.79	22.4 ± 5.43	29.6 ± 3.94	36.7 ± 4.77	15	1.92	1.69	1.95	1.72	1.85	1.61	2.07	1.83	1.93	1.70	1.87	1.64	Raw Data (RLU) (PPARγ LBD protein; TR-FRET signal at 0.8 µM): 1.91 RLU; Raw Data - Background (RLU) (PPARγ LBD protein; TR-FRET signal at 0.8 µM): 1.68 RLU; Raw Data (RLU) (PPARγ LBD protein; TR-FRET signal at 4 µM): 1.91 RLU; Raw Data - Background (RLU) (PPARγ LBD protein; TR-FRET signal at 4 µM): 1.67 RLU; Raw Data (RLU) (PPARγ LBD protein; TR-FRET signal at 20 µM): 1.91 RLU; Raw Data - Background (RLU) (PPARγ LBD protein; TR-FRET signal at 20 µM): 1.67 RLU; Raw Data (RLU) (PPARγ LBD protein; TR-FRET signal at 100 µM): 1.40 RLU; Raw Data - Background (RLU) (PPARγ LBD protein; TR-FRET signal at 100 µM): 1.17 RLU
